Biological target: SIRT6 enzyme (Homo sapiens, UniProt Q8N6T7)
Assay: Measurement of deacetylation activity (SIRT6, AlphaLISA, H3K9(Ac) peptide)
Format: biochemical
Conditions: SIRT6 25 ng/mL, H3K9(Ac) biotin peptide 2 nM, NAD 10 μM, room temperature 30 minutes, duplicate
In short: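 SIRT6 (25 ng/mL final) in Tris-HCl pH 8.0 buffer with compound (e.g. 0.046–100 μM final) reacted with biotin-H3K9(Ac) peptide (2 nM) and NAD+ (10 μM), 30 min, room temperature. Stopped with nicotinamide plus AlphaLISA anti-unmodified H3K9/K27 beads, 60 min; EC150 (150% relative activity) from sigmoidal fit.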

SIRT6 enzyme, sequence (Q8N6T7 whole entry, species assumed): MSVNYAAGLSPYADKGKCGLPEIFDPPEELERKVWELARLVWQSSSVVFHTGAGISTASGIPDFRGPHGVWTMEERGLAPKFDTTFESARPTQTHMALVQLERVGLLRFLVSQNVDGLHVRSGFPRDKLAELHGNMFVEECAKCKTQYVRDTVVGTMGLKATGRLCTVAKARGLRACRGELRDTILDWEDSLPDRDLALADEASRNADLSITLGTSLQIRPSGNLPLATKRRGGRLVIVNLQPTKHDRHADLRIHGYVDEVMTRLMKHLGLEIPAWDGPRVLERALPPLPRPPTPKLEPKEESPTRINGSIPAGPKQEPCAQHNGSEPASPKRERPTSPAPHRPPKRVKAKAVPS

Compound	EC150 (the concentration of the compound showing a relative enzyme activity of 150%) [μm]
C[C@@H](CO)NC(=O)Nc1nc2c(s1)[C@@H]1COC[C@H](C2)N1c1ncc(-c2cccc(C(F)F)c2)o1 [Example 168, N-[(4S,8S)-10-{5-[3-(difluoromethyl)phenyl]-1,3-oxazol-2-yl}-4,7,8,9-tetrahydro-5H-4,8-epiminooxocino[5,4-d][1,3]thiazol-2-yl]-N′-[(2S)-1-hydroxypropan-2-yl]urea]	0.35
C[C@@H](CO)NC(=O)Nc1nc2c(s1)[C@@H]1COC[C@H](C2)N1c1ncc(-c2cccc(OC(F)F)n2)o1 [Example 169, N-[(4S,8S)-10-{5-[6-(difluoromethoxy)pyridin-2-yl]-1,3-oxazol-2-yl}-4,7,8,9-tetrahydro-5H-4,8-epiminooxocino[5,4-d][1,3]thiazol-2-yl]-N′-[(2S)-1-hydroxypropan-2-yl]urea]	0.66
CC(C)(CO)NC(=O)Nc1nc2c(s1)[C@@H]1COC[C@H](C2)N1c1ncc(-c2cccc(OC(F)F)c2)o1 [Example 170, N-[(4S,8S)-10-{5-[3-(difluoromethoxy)phenyl]-1,3-oxazol-2-yl}-4,7,8,9-tetrahydro-5H-4,8-epiminooxocino[5,4-d][1,3]thiazol-2-yl]-N′-(1-hydroxy-2-methylpropan-2-yl)urea]	1.2
C[C@@H](O)CNC(=O)Nc1nc2c(s1)[C@@H]1COC[C@H](C2)N1c1ncc(-c2cccc(OC(F)F)c2)o1 [Example 171, N-[(4S,8S)-10-{5-[3-(difluoromethoxy)phenyl]-1,3-oxazol-2-yl}-4,7,8,9-tetrahydro-5H-4,8-epiminooxocino[5,4-d][1,3]thiazol-2-yl]-N′-[(2R)-2-hydroxypropyl]urea]	0.55
CC(C)(O)CNC(=O)Nc1nc2c(s1)[C@@H]1COC[C@H](C2)N1c1ncc(-c2cccc(OC(F)F)c2)o1 [Example 172, N-[(4S,8S)-10-{5-[3-(difluoromethoxy)phenyl]-1,3-oxazol-2-yl}-4,7,8,9-tetrahydro-5H-4,8-epiminooxocino[5,4-d][1,3]thiazol-2-yl]-N′-(2-hydroxy-2-methylpropyl)urea]	0.83
C[C@@H](CO)NC(=O)Nc1nc2c(s1)[C@@H]1COC[C@H](C2)N1c1ncc(-c2cccc(OC(F)F)c2)o1 [Example 173, N-[(4S,8S)-10-{5-[3-(difluoromethoxy)phenyl]-1,3-oxazol-2-yl}-4,7,8,9-tetrahydro-5H-4,8-epiminooxocino[5,4-d][1,3]thiazol-2-yl]-N′-[(2S)-1-hydroxypropan-2-yl]urea]	0.62
C[C@H](O)CNC(=O)Nc1nc2c(s1)[C@@H]1COC[C@H](C2)N1c1ncc(-c2cccc(OC(F)F)n2)o1 [Example 174, N-[(4S,8S)-10-{5-[6-(difluoromethoxy)pyridin-2-yl]-1,3-oxazol-2-yl}-4,7,8,9-tetrahydro-5H-4,8-epiminooxocino[5,4-d][1,3]thiazol-2-yl]-N′-[(2S)-2-hydroxypropyl]urea]	0.74
O=C(Nc1nc2c(s1)[C@@H]1COC[C@H](C2)N1c1ncc(-c2cccc(OC(F)F)n2)o1)N[C@@H]1COC[C@H]1O [Example 175, N-[(4S,8S)-10-{5-[6-(difluoromethoxy)pyridin-2-yl]-1,3-oxazol-2-yl}-4,7,8,9-tetrahydro-5H-4,8-epiminooxocino[5,4-d][1,3]thiazol-2-yl]-N′-[(3R,4S)-4-hydroxyoxolan-3-yl]urea]	0.27
O=C(Nc1nc2c(s1)[C@@H]1COC[C@H](C2)N1c1ncc(-c2cccc(OC(F)F)n2)o1)N[C@H]1CC[C@H](O)CC1 [Example 176, N-[(4S,8S)-10-{5-[6-(difluoromethoxy)pyridin-2-yl]-1,3-oxazol-2-yl}-4,7,8,9-tetrahydro-5H-4,8-epiminooxocino[5,4-d][1,3]thiazol-2-yl]-N′-[(1r,4r)-4-hydroxycyclohexyl]urea]	0.33
O=C(NCc1ccnc(O)c1)Nc1nc2c(s1)[C@@H]1COC[C@H](C2)N1c1ncc(-c2cccc(OC(F)F)n2)o1 [Example 177, N-[(4S,8S)-10-{5-[6-(difluoromethoxy)pyridin-2-yl]-1,3-oxazol-2-yl}-4,7,8,9-tetrahydro-5H-4,8-epiminooxocino[5,4-d][1,3]thiazol-2-yl]-N′-[(2-hydroxypyridin-4-yl)methyl]urea]	0.28
Cn1ccc(CNC(=O)Nc2nc3c(s2)[C@@H]2COC[C@H](C3)N2c2ncc(-c3cccc(OC(F)F)n3)o2)cc1=O [Example 178, N-[(4S,8S)-10-{5-[6-(difluoromethoxy)pyridin-2-yl]-1,3-oxazol-2-yl}-4,7,8,9-tetrahydro-5H-4,8-epiminooxocino[5,4-d][1,3]thiazol-2-yl]-N′-[(1-methyl-2-oxo-1,2-dihydropyridin-4-yl)methyl]urea]	0.1
O=C(NCC1(O)CC1)Nc1nc2c(s1)[C@@H]1COC[C@H](C2)N1c1ncc(-c2cccc(OC(F)F)n2)o1 [Example 179, N-[(4S,8S)-10-{5-[6-(difluoromethoxy)pyridin-2-yl]-1,3-oxazol-2-yl}-4,7,8,9-tetrahydro-5H-4,8-epiminooxocino[5,4-d][1,3]thiazol-2-yl]-N′-[(1-hydroxycyclopropyl)methyl]urea]	0.72
O=C(Nc1nc2c(s1)[C@@H]1COC[C@H](C2)N1c1ncc(-c2cccc(OC(F)F)n2)o1)NC1CCS(=O)(=O)CC1 [Example 180, N-[(4S,8S)-10-{5-[6-(difluoromethoxy)pyridin-2-yl]-1,3-oxazol-2-yl}-4,7,8,9-tetrahydro-5H-4,8-epiminooxocino[5,4-d][1,3]thiazol-2-yl]-N′-(1,1-dioxo-1λ^6 thian-4-yl)urea]	0.14
O=C(Nc1nc2c(s1)[C@@H]1COC[C@H](C2)N1c1ncc(-c2cccc(OC(F)F)n2)o1)NC1(CO)CC1 [Example 181, N-[(4S,8S)-10-{5-[6-(difluoromethoxy)pyridin-2-yl]-1,3-oxazol-2-yl}-4,7,8,9-tetrahydro-5H-4,8-epiminooxocino[5,4-d][1,3]thiazol-2-yl]-N′-[1-(hydroxymethyl)cyclopropyl]urea]	0.53
CC(=O)N1CC[C@@H](NC(=O)Nc2nc3c(s2)[C@@H]2COC[C@H](C3)N2c2ncc(-c3cccc(OC(F)F)n3)o2)C1 [Example 182, N-[(3R)-1-acetylpyrrolidin-3-yl]-N′-[(4S,8S)-10-{5-[6-(difluoromethoxy)pyridin-2-yl]-1,3-oxazol-2-yl}-4,7,8,9-tetrahydro-5H-4,8-epiminooxocino[5,4-d][1,3]thiazol-2-yl]urea]	0.16
CC(=O)N1CC(NC(=O)Nc2nc3c(s2)[C@@H]2COC[C@H](C3)N2c2ncc(-c3cccc(OC(F)F)n3)o2)C1 [Example 183, N-(1-acetylazetidin-3-yl)-N′-[(4S,8S)-10-{5-[6-(difluoromethoxy)pyridin-2-yl]-1,3-oxazol-2-yl}-4,7,8,9-tetrahydro-5H-4,8-epiminooxocino[5,4-d][1,3]thiazol-2-yl]urea]	0.24
COc1cccc(-c2cnc(N3[C@@H]4COC[C@H]3c3sc(NC(=O)NCC(C)(C)O)nc3C4)o2)n1 [Example 184, N-(2-hydroxy-2-methylpropyl)-N′-{(4S,8S)-10-[5-(6-methoxypyridin-2-yl)-1,3-oxazol-2-yl]-4,7,8,9-tetrahydro-5H-4,8-epiminooxocino[5,4-d][1,3]thiazol-2-yl}urea]	0.91
COc1cccc(-c2cnc(N3[C@@H]4COC[C@H]3c3sc(NC(=O)N[C@@H]5CCOC5)nc3C4)o2)n1 [Example 185, N-{(4S,8S)-10-[5-(6-methoxypyridin-2-yl)-1,3-oxazol-2-yl]-4,7,8,9-tetrahydro-5H-4,8-epiminooxocino[5,4-d][1,3]thiazol-2-yl}-N′-[(3R)-oxolan-3-yl]urea]	0.4
COc1cccc(-c2cnc(N3[C@@H]4COC[C@H]3c3sc(NC(=O)NC5CCOCC5)nc3C4)o2)n1 [Example 186, N-{(4S,8S)-10-[5-(6-methoxypyridin-2-yl)-1,3-oxazol-2-yl]-4,7,8,9-tetrahydro-5H-4,8-epiminooxocino[5,4-d][1,3]thiazol-2-yl}-N′-oxan-4-ylurea]	0.48
COc1cccc(-c2cnc(N3[C@@H]4COC[C@H]3c3sc(NC(=O)N[C@H]5CC[C@@H](O)CC5)nc3C4)o2)n1 [Example 187, N-[(1s,4s)-4-hydroxycyclohexyl]-N′-{(4S,8S)-10-[5-(6-methoxypyridin-2-yl)-1,3-oxazol-2-yl]-4,7,8,9-tetrahydro-5H-4,8-epiminooxocino[5,4-d][1,3]thiazol-2-yl}urea]	0.64
COc1cccc(-c2cnc(N3[C@@H]4COC[C@H]3c3sc(NC(=O)N[C@H]5CC[C@H](O)CC5)nc3C4)o2)n1 [Example 188, N-[(1r,4r)-4-hydroxycyclohexyl]-N′-{(4S,8S)-10-[5-(6-methoxypyridin-2-yl)-1,3-oxazol-2-yl]-4,7,8,9-tetrahydro-5H-4,8-epiminooxocino[5,4-d][1,3]thiazol-2-yl}urea]	0.4

Source: patent US11981686B2, “Urea compound having substituent” (DAIICHI SANKYO COMPANY, LIMITED, priority 2019, dated 2024)
